Like-named read-outs stand apart in the source and are kept apart here.
Columns and labels:
[1] = system: CT26 MDOTS; assay: Bead-based cytokine profiling of CT26 MDOTS; assay type: cell-based, murine; conditions: Cmpd1 (1 μM) ± anti-PD-1 (10 μg/mL)
Procedure: Fresh tumor specimens (murine and human patients) were received in media (DMEM) on ice and minced in a 10 cm dish (on ice) using sterile forceps and scalpel. Minced tumor was resuspended in DMEM ([…], […] sodium pyruvate, 1:100 penicillin-streptomycin) (Corning CellGro, Manassas, Va.) +10% FBS (Gemini Bio-Products, West Sacramento, Calif.), 100 U/mL collagenase type IV (Life Technologies, Carlsbad, Calif.), and 15 mM HEPES (Life Technologies, Carlsbad, Calif.), except for CT26 tumors that were prepared in RPMI. Samples were pelleted and resuspended in 10-20 mL media. Red blood cells were removed from visibly bloody samples using RBC Lysis Buffer (Boston Bio-Products, Ashland, Mass.). […]
Two multiplex assays were performed utilizing a bead-based immunoassay approach, the Bio-Plex Pro™ Human Cytokine 40-plex Assay (Cat #171AK99MR2) and Bio-Plex Pro™ Mouse Cytokine Panel 1, 23-plex (Cat #M60009RDPD) on a Bio-plex 200 system (Cat #171000201). […] Fold changes relative to the MDOT/PDOT control were calculated and plotted as log 2FC. Lower and upper limits of quantitation (LLOQ/ULOQ) were imputed from standard curves for cytokines above or below detection. […]

[2] = target: off-target kinases (Homo sapiens, UniProt P12931); assay: SelectScreen Kinase Profiling, single point inhibition and IC50 for off-target kinases; assay type: biochemical; design: other: SRC N1; 1000 μM; ATP Km app; ZLYTE; conditions: SRC N1, ATP Km app, ZLYTE
off-target kinases, sequence (P12931 1-542 isoform P12931-2): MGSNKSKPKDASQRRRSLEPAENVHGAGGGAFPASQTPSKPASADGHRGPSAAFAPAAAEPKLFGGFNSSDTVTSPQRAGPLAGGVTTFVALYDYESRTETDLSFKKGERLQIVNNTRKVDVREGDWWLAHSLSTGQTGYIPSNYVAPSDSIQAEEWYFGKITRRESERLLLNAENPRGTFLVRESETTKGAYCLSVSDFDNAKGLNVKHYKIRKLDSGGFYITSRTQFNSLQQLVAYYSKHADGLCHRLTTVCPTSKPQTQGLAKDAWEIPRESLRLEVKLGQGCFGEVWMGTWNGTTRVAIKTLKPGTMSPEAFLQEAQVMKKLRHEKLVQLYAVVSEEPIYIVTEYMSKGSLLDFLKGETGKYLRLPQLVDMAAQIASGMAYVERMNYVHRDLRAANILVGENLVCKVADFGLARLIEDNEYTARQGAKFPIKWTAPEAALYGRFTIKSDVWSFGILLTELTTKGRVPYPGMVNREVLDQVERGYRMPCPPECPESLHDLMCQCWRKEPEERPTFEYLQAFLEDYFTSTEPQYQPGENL
Procedure: Biochemical single point inhibition and IC50 concentrations for TBK1, IKKε (IKBKE), and off-target kinases were determined at ThermoFisher Scientific using SelectScreen Kinase Profiling Services (Madison, Wis., USA) (Tables S4A and S4B-1-7). To determine cellular potency, the human colorectal cancer carcinoma cell line HCT116 (ATCC, Manassas, Va.) was maintained in T175 flasks in complete RPMI medium; RPMI 1640 supplemented with 10% FBS, 1× Penicillin-Streptomycin solution and 1×MEM (non-essential amino acids). HCT116 cells were grown to 90-95% confluency in T175 flasks containing complete RPMI medium and transfected in bulk using Lipofectamine 2000 (Invitrogen, Carlsbad, Calif.) with 70 μg of ISG54-luciferase reporter plasmid (Elim Biopharmaceuticals Inc., Hayward, Calif.). The reporter plasmid contains a luciferase gene expression cassette under the transcriptional regulation of the promoter of the human interferon stimulated gene 54 (ISG54). Transfection of the cells was allowed to take place for 6 hours, after which the cells were harvested by treatment with 0.25% trypsin EDTA (Corning Inc., Corning, N.Y.). Trypsinized cells were added to 384-well poly-d-lysine treated black clear bottom tissue culture assay plates (Greiner Bio-One GmbH, Kremsmünster, Austria) at a density of 20,000 cells/well in 80 μL of complete RPMI medium and incubated overnight. After 16-18 hours post-transfection, the assay plates were washed with PBS (Corning Inc., Corning, N.Y.), followed by addition of 80 μL/well of serum-free RPMI 1640 medium containing 1× Penicillin-Streptomycin solution, 1×MEM and 350 nL of DMSO or titrations of Compound 1. […] The assay plates were incubated for 5 hours at 37° C., followed by addition of One-Glo luciferase firefly reagent (Promega, Madison, Wis.) at 1:1 volume/well and luminescence was measured in an EnVision Multilabel Plate Reader (PerkinElmer, Santa Clara, Calif.). The EC50 values were calculated from the fit of the dose-response curves to a four-parameter equation. […]

N#Cc1cc(-c2ncnc(Nc3ccc(N4CCN(C5COC5)CC4)cc3)n2)ccc1OC1CCOCC1 [Compound 1, 5-(4-((4-(4-(oxetan-3-yl)piperazin-1-yl)phenyl)amino)-1,3,5-triazin-2-yl)-2-((tetrahydro-2H-pyran-4-yl)oxy)benzonitrile] was tested, and the “cytokines involved in activated innate immune responses (e.g., G-CSF) in CT26 MDOTS” value [1] was “concomitant induction”, the “levels of CCL4, CCL3, and IL-1β in CT26 MDOTS” value [1] was “Decreased levels” and the inhibition ([2]; read-out: % Inhibition 1) was 54%. It also gave an inhibition ([2]; read-out: % Inhibition 2) of 60% and an inhibition ([2]; read-out: % Inhibition Avg) of 57%.

From patent US11572590B2, “Methods for evaluating tumor cell spheroids using 3D microfluidic cell culture device” (Dana-Farber Cancer Institute, Inc., priority 2017, dated 2023)
